Experimental findings from patent publication US8937080B2, “Pyrimidine substituted macrocyclic HCV inhibitors” (Medivir AB, priority 2007, dated 2015) are described below.

Read-outs that look alike come from different tables or passages of the source. Bounds are passed on as bounds.

The conditions of data set [1]: rcm bond, 14-membered ring, Hoveyda-Grubbs II, DCE, 16.0 h.
For data set [2] the following is noted: from C=CCCCCN(C)C(=O)C1CC(Oc2ccnc(-c3ccccc3)n2)CC1C(=O)NC1(C(=O)NS(=O)(=O)C2CC2)CC1C=C; rcm bond; 14-membered ring; Hoveyda-Grubbs II; 150.0 °C; 0.17 h.
Data set [3] deals with HCV replicons (wild type NS3-NS5B regions of HCV type 1b) in Huh-7 luc/neo cells. Description: Replicon assay (Huh-Luc cells, luciferase readout). The data set is classed as cell-based. The settings on record: Hepatitis C virus, Huh-7, 72 h, incubation of three days, luciferase activity. The source says: The compounds of formula (I) were examined for activity in the inhibition of HCV RNA replication in a cellular assay. […] The cellular assay was based on a bicistronic expression construct, as described by Lohmann et al. (1999) Science vol. 285 pp. 110-113 with modifications described by Krieger et al. (2001) Journal of Virology 75: 4614-4624, in a multi-target screening strategy. In essence, the method was as follows.
The assay utilized the stably transfected cell line Huh-7 luc/neo (hereafter referred to as Huh-Luc). This cell line harbors an RNA encoding a bicistronic expression construct comprising the wild type NS3-NS5B regions of HCV type 1b translated from an Internal Ribosome Entry Site (IRES) from encephalomyocarditis virus (EMCV), preceded by a reporter portion (FfL-luciferase), and a selectable marker portion (neo^R, neomycine phosphotransferase). The construct is bordered by 5′ and 3′ NTRs (non-translated regions) from HCV type 1b. Continued culture of the replicon cells in the presence of G418 (neo^R) is dependent on the replication of the HCV RNA. The stably transfected replicon cells that express HCV RNA, which replicates autonomously and to high levels, encoding inter alia luciferase, are used for screening the antiviral compounds.
The replicon cells were plated in 384 well plates in the presence of the test and control compounds which were added in various concentrations. Following an incubation of three days, HCV replication was measured by assaying luciferase activity (using standard luciferase assay substrates and reagents and a Perkin Elmer ViewLux™ ultraHTS microplate imager). Replicon cells in the control cultures have high luciferase expression in the absence of any inhibitor. The inhibitory activity of the compound on luciferase activity was monitored on the Huh-Luc cells, enabling a dose-response curve for each test compound. EC50 values were then calculated, which value represents the amount of the compound required to decrease by 50% the level of detected luciferase activity, or more specifically, the ability of the genetically linked HCV replicon RNA to replicate.

Data set [4] has as its target HCV NS3/4A protease complexes (full-length hepatitis C NS3 protease enzyme with NS4A cofactor) (Hepatitis C virus genotype 1a, UniProt P27958). Description: Inhibition assay (enzymatic assay, depsipeptide substrate hydrolysis). In kind it is biochemical. The conditions noted are these: enzyme 1 nM, 25 μM NS4A cofactor, 0.5 μM substrate, 30° C., competitive inhibition model. On the procedure:
The aim of this in vitro assay is to measure the inhibition of HCV NS3/4A protease complexes by the compounds of the present invention. This assay provides an indication of how effective compounds of the present invention would be in inhibiting HCV NS3/4A proteolytic activity.
The inhibition of full-length hepatitis C NS3 protease enzyme was measured essentially as described in Poliakov, 2002 Prot Expression & Purification 25 363 371. Briefly, the hydrolysis of a depsipeptide substrate, Ac-DED(Edans)EEAbuψ[COO]ASK(Dabcyl)-NH2 (AnaSpec, San José, USA), was measured spectrofluorometrically in the presence of a peptide cofactor, KKGSVVIVGRIVLSGK (Åke Engström, Department of Medical Biochemistry and Microbiology, Uppsala University, Sweden). [Landro, 1997 #Biochem 36 9340-9348]. The enzyme (1 nM) was incubated in 50 mM HEPES, pH 7.5, 10 mM DTT, 40% glycerol, 0.1% n-octyl-D-glucoside, with 25 μM NS4A cofactor and inhibitor at 30° C. for 10 min, whereupon the reaction was initiated by addition of 0.5 μM substrate. Inhibitors were dissolved in DMSO, sonicated for 30 sec. and vortexed. The solutions were stored at −20° C. between measurements.
The final concentration of DMSO in the assay sample was adjusted to 3.3%. The rate of hydrolysis was corrected for inner filter effects according to published procedures.
[Liu, 1999 Analytical Biochemistry 267 331-335]. Ki values were estimated by non-linear regression analysis (GraFit, Erithacus Software, Staines, MX, UK), using a model for competitive inhibition and a fixed value for Km (0.15 μM). A minimum of two replicates was performed for all measurements.

HCV NS3/4A protease complexes (full-length hepatitis C NS3 protease enzyme with NS4A cofactor), sequence (P27958 1027-1657, other chains not shown): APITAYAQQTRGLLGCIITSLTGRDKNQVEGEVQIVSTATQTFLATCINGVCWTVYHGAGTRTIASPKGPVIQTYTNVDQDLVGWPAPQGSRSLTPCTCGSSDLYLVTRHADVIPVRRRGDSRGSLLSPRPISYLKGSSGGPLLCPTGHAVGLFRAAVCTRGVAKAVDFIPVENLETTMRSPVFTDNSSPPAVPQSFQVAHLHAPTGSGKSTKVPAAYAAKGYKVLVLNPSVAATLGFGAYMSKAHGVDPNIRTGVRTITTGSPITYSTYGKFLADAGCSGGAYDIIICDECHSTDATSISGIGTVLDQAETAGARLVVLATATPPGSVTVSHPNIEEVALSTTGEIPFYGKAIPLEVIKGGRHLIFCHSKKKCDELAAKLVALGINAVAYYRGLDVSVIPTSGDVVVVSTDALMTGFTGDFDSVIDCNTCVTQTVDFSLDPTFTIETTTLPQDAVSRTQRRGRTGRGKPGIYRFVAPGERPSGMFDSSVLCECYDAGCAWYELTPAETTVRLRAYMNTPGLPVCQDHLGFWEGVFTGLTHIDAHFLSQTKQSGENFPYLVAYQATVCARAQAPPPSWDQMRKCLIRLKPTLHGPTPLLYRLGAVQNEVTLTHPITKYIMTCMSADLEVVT

In the case of `CCOC(=O)C12CC1C=CCCCCN(C)C(=O)C1CC(Oc3cc(OC)nc(-c4ccccc4)n3)CC1C(=O)N2` (stereo not shown), in data set [1] (from C=CCCCCN(C)C(=O)C1CC(Oc2cc(OC)nc(-c3ccccc3)n2)CC1C(=O)NC1(C(=O)OCC)CC1C=C, 1.69 mM), the ring closure, isolated yield turned out to be 38%.
Turning to `CCOC(=O)C12CC1C=CCCCCN(C)C(=O)C1CC(Oc3cc(C(C)(C)C)nc(OC)n3)CC1C(=O)N2` (stereo not shown), the ring closure, isolated yield in data set [1] (from C=CCCCCN(C)C(=O)C1CC(Oc2cc(C(C)(C)C)nc(OC)n2)CC1C(=O)NC1(C(=O)OCC)CC1C=C, 1.74 mM) is 74%.
Regarding `CN1CCCCC=CC2CC2(C(=O)NS(=O)(=O)C2CC2)NC(=O)C2CC(Oc3ccnc(-c4ccccc4)n3)CC2C1=O` (stereo not shown) [Example 10, Cyclopropanesulfonic acid [13-methyl-2,14-dioxo-17-(2-phenylpyrimidin-4-yloxy)-3,13-diaza-tricyclo[13.3.0.0*4,6*]octadec-7-ene-4-carbonyl]-amide], the ring closure, yield after HPLC in data set [2] came out at 16%. The EC50 (usually the concentration needed to bring the measured effect to its halfway point) in data set [3] was more than 10 µM. In data set [4], the inhibitory constant (Ki) (usually a dissociation constant, usually derived from enzyme kinetics or from competition with a known ligand) was more than 1 µM.
Take `CCOC(=O)C12CC1C=CCCCCN(C)C(=O)C1CC(Oc3cc(-c4ccccc4)nc(OC)n3)CC1C(=O)N2` (stereo not shown): the ring closure, isolated yield in data set [1] (from C=CCCCCN(C)C(=O)C1CC(Oc2cc(-c3ccccc3)nc(OC)n2)CC1C(=O)NC1(C(=O)OCC)CC1C=C, 1.83 mM) came out at 70%.
`CCOC(=O)C12CC1C=CCCCCN(C)C(=O)C1CC(Oc3cc(OC)nc(OC)n3)CC1C(=O)N2` (stereo not shown) gave a ring closure, isolated yield in data set [1] (from C=CCCCCN(C)C(=O)C1CC(Oc2cc(OC)nc(OC)n2)CC1C(=O)NC1(C(=O)OCC)CC1C=C, 1.91 mM) of 49%.
